Reference: paper PMC10882696, “Novel 5-Substituted Oxindole Derivatives as Bruton’s Tyrosine Kinase Inhibitors: Design, Synthesis, Docking, Molecular Dynamics Simulation, and Biological Evaluation” (ACS Omega, 2024)
Entries after “also recorded” stand apart in the source; their conditions may differ.

Assays:
K562 = assay: 3 day MTS cytotoxicity assay, K562; assay type: cell-based; conditions: Homo sapiens; K562, BTK-positive; mean ± SD, n ≥ 6
Experimental: (§1) The cytotoxic activity of all the 10 compounds was tested under in vitro conditions using a 3 day standard 3-(4,5-dimethylthiazol-2yl)-5-(3-carboxymethoxyphenyl)-2-(4-sulfophenyl)-2H-tetrazolium reduction assay in 384-well plates on a robotic high-throughput screening platform (HighResBio, Boston, MA) as described elsewhere.[38] The IC50 values were calculated from the respective dose–response curves of compounds with Dotmatics (San Diego, CA, USA).

[1] = Caco-2 permeability (gastrointestinal resorption model); assay type: in vitro ADME; conditions: human, Caco-2
Experimental: (§2) Selected compounds were assayed for human plasma and liver microsomal stability in vitro, PAMPA and cellular permeability models of gastrointestinal resorption, and the blood–brain barrier using Caco-2 and MDR1-MCDK cells as previously described.[38] Samples were analyzed in an Agilent RapidFire 300 High-Throughput Mass Spectrometry System (RF-MS; Agilent, Wakefield, MA) with subsequent detection in a Qtrap 5500 mass spectrometer (AB Sciex, Concord, Canada).

Caco-2 cells = assay: as above; assay type: in vitro ADME; conditions: for active efflux: Caco-2; for Caco-2 category: Caco-2 permeability
Experimental: as §2

[2] = Liver microsomal stability; assay type: in vitro ADME; conditions: human liver microsomes, intrinsic clearance category
Experimental: as §2

JURKAT = assay: 3 day MTS cytotoxicity assay, JURKAT; assay type: cell-based; conditions: Homo sapiens, ITK-positive, mean ± SD, n ≥ 6
Experimental: as §1

CCRF-CEM = assay: 3 day MTS cytotoxicity assay, CCRF-CEM; assay type: cell-based; conditions: Homo sapiens, ITK-positive, mean ± SD, n ≥ 6
Experimental: as §1

MRC-5 = assay: 3 day MTS cytotoxicity assay, MRC-5; assay type: cell-based; conditions: Homo sapiens, MRC5; MRC-5, non-cancer fibroblasts; mean ± SD, n ≥ 6
Experimental: as §1

BJ = assay: 3 day MTS cytotoxicity assay, BJ; assay type: cell-based; conditions: Homo sapiens, non-cancer fibroblasts, mean ± SD, n ≥ 6
Experimental: as §1

A549 = assay: 3 day MTS cytotoxicity assay, A549; assay type: cell-based; conditions: Homo sapiens; A549, ITK/BTK-negative; mean ± SD, n ≥ 6
Experimental: as §1

Plasma stability = assay type: in vitro ADME; conditions: human plasma, in vitro
Experimental: as §2

HCT116p53^–/– = assay: 3 day MTS cytotoxicity assay, HCT116p53-/-; assay type: cell-based; conditions: ITK/BTK-negative, mean ± SD, n ≥ 6
Experimental: as §1

[3] = MDR1-MDCK permeability (blood–brain barrier model); assay type: in vitro ADME; conditions: dog
Experimental: as §2

MDR1-MDCK cells = assay: MDR1-MDCK permeability (blood–brain barrier model); assay type: in vitro ADME
Experimental: as §2

MDR1 = assay: MDR1-MDCK permeability (blood–brain barrier model); assay type: in vitro ADME; conditions: dog
Experimental: as §2

HCT116 = assay: 3 day MTS cytotoxicity assay, HCT116; assay type: cell-based; conditions: Homo sapiens, HCT-116; HCT116, ITK/BTK-negative; mean ± SD, n ≥ 6
Experimental: as §1

[4] = Parallel artificial membrane permeability assay (PAMPA); assay type: in vitro ADME; conditions: passive diffusion
Experimental: as §2

U2OS = assay: 3 day MTS cytotoxicity assay, U2OS; assay type: cell-based; conditions: Homo sapiens, ITK/BTK-negative, mean ± SD, n ≥ 6
Experimental: as §1

RAMOS = assay: 3 day MTS cytotoxicity assay, RAMOS; assay type: cell-based, human; conditions: for activity in RAMOS cells: BTK-high; for IC50: Homo sapiens, Ramos, BTK-positive, mean ± SD, n ≥ 6
Experimental: as §1

Plasma protein binding = assay type: in vitro ADME; conditions: in vitro, read-out: plasma protein binding (% bound) (converted)
pBTK (Tyr223) [5] = assay: Western blot of pBTK in LPS-stimulated RAMOS cells; assay type: cell-based, human; conditions: RAMOS cells stimulated with LPS 10 min, then 50 μM for 3 h
Experimental: (§3) RAMOS cells were plated at 0.5 × 10^6/mL density in six-well plates. After 24 h, cells were treated with compounds at concentrations of 1, 10, and 50 μM for 24 h. The concentration of the vehicle was 0.5% in the highest test drug concentration (50 μM). LPS stimulation of RAMOS cells followed by drug treatment was performed as described previously.[19] […]
(§4) Primary antibodies used were purchased from Cell Signaling Technology, Inc., Massachusetts, USA, and included BTK (1:1000; Cat. # 3533S), phosphor-BTK (Tyr223) (1:1000; Cat # 5082S), p44/42 MAPK (ERK1/2) (1:1000; Cat # 9102S), phospho-p44/42 MAPK (ERK1/2) (Thr202/Tyr204) (1:1000; Cat # 4376S), p38 MAPK (1:1000; Cat # 9212S), phospho-p38 MAPK (Thr180/Tyr182) (1:1000; Cat # 9211S), Lyn (C13F9) (1:1000: Cat # 2796), phospho-Lyn (Tyr507) (1:1000; Cat #2731), Syk (1:1000; Cat # 2712), phospho-Syk (Tyr525/526) (C87C1) (1:1000; Cat # 2710), and GAPDH (1:4000; Cat. # 2118). […] Band intensities were quantified using NIH ImageJ Software (NIH, Bethesda, Maryland, USA).

p-p38 (Thr180/Tyr182) = assay: Western blot of p-p38 in LPS-stimulated RAMOS cells; assay type: cell-based, human; conditions: RAMOS cells stimulated with LPS 10 min, then 50 μM for 3 h
Experimental: as §3, §4

Lyn phosphorylation = assay: Western blot of Lyn phosphorylation in RAMOS cells; assay type: cell-based, human; conditions: 24 h
Experimental: as §3, §4

pERK 1/2 (Thr202/Tyr204) = assay: Western blot of pERK1/2 in LPS-stimulated RAMOS cells; assay type: cell-based, human; conditions: RAMOS cells stimulated with LPS 10 min, then 50 μM for 3 h
Experimental: as §3, §4

pBTK (Tyr223) [6] = assay: Western blot of BTK phosphorylation in RAMOS cells; assay type: cell-based, human
Experimental: as §3, §4

Syk phosphorylation = assay: Western blot of Syk phosphorylation in RAMOS cells; assay type: cell-based, human; conditions: 24 h
Experimental: as §3, §4

Structure (SMILES) | IC50 (K562) [µM] | Papp [1] [×10⁻⁶ cm/s] | efflux ratio [1] | recovery [1] [%] | active efflux (Caco-2 cells) | Caco-2 category (Caco-2 cells) | microsomal stability (clearance) [2] | IC50 (JURKAT) [µM] | IC50 (CCRF-CEM) [µM] | IC50 (MRC-5) [µM] | IC50 (BJ) [µM] | IC50 (A549) [µM] | plasma stability (category) (Plasma stability) | IC50 (HCT116p53^–/–) [µM] | recovery [3] [%] | MDR1-MDCK CNS (−ive/+ive) (MDR1-MDCK cells) | active efflux (MDR1-MDCK cells) | Papp (MDR1) [×10⁻⁶ cm/s] | efflux ratio (MDR1) | IC50 (HCT116) [µM] | further results
O=C1Nc2ccc(S(=O)(=O)N3CCN(C(=O)c4cccc(Br)c4)CC3)cc2C1=C1CCCC1 [9f, 5-((4-(3-Bromobenzoyl)piperazin-1-yl)sulfonyl)-3-cyclopentylideneindolin-2-one] | > 50 | 10.6 | 3.79 | 74.5 | active efflux: yes | medium permeability; also recorded: moderate | medium | > 50 | > 50 | > 50 | > 50 | > 50 | stable | > 50 | 79.2 | CNS –ive | active efflux: yes | 3.2 | 6.93 | > 50 | PAMPA category [4]: low; IC50 (U2OS): > 50 µM; activity in RAMOS cells (RAMOS): selective cytotoxicity; also recorded: showed activity; also recorded: good anticancer activity in the micromole range; IC50 (RAMOS): 2.06 ± 0.43 µM; fraction unbound (Plasma protein binding): 0.043
O=C1Nc2ccc(S(=O)(=O)N3CCN(C(=O)C4CCCCC4)CC3)cc2C1=C1CCCC1 [9b, 5-((4-(Cyclohexanecarbonyl)piperazin-1-yl)sulfonyl)-3-cyclopentylideneindolin-2-one] | > 50 | 3.18 | 2.69 | 45.4 | active efflux: yes | low permeability and low | metabolized quickly by microsomes and high | > 50 | 35.5 ± 7.05 | > 50 | > 50 | > 50 | stable | > 50 | 60.2 | CNS –ive | active efflux: yes | 2.92 | 9.3 | > 50 | pBTK (Tyr223) activation (pBTK (Tyr223) [5]): no significant effect; p-p38 (Thr180/Tyr182) levels (p-p38 (Thr180/Tyr182)): only evidenced on p-p38 (Thr180/Tyr182) levels; Lyn phosphorylation (Lyn phosphorylation): significantly inhibited; PAMPA category [4]: low; IC50 (U2OS): > 50 µM; activity in RAMOS cells (RAMOS): selective cytotoxicity; also recorded: showed activity; also recorded: good anticancer activity in the micromole range; IC50 (RAMOS): 3.04 ± 0.56 µM; fraction unbound (Plasma protein binding): 0.114
CCCCC(=O)N1CCN(S(=O)(=O)c2ccc3c(c2)C(=C2CCCC2)C(=O)N3)CC1 [9h, 3-Cyclopentylidene-5-((4-pentanoylpiperazin-1-yl)sulfonyl)indolin-2-one] | > 50 | 7.18 | 3.34 | 63.2 | active efflux: yes | medium permeability; also recorded: moderate | medium | > 50 | 46.1 ± 3.13 | > 50 | > 50 | > 50 | stable | > 50 | 86.9 | CNS –ive | active efflux: yes | 5.43 | 13.1 | > 50 | pBTK (Tyr223) activation (pBTK (Tyr223) [5]): significantly inhibited; pERK 1/2 (Thr202/Tyr204) levels (pERK 1/2 (Thr202/Tyr204)): decrease; pBTK (Tyr223) levels (pBTK (Tyr223) [6]; 24 h, 50 μM): decrease was significant; pBTK (Tyr223) levels (pBTK (Tyr223) [6]; 24 h, 1, 10, and 50 μM): selective inhibition of pBTK (Tyr223); p-p38 (Thr180/Tyr182) levels (p-p38 (Thr180/Tyr182)): decrease; Syk phosphorylation (Syk phosphorylation): without affecting; also recorded: did not affect; Lyn phosphorylation (Lyn phosphorylation): without affecting; also recorded: did not affect; PAMPA category [4]: medium; IC50 (U2OS): > 50 µM; activity in RAMOS cells (RAMOS): selective cytotoxicity; also recorded: showed activity; also recorded: good anticancer activity in the micromole range; IC50 (RAMOS): 2.75 ± 0.8 µM; fraction unbound (Plasma protein binding): 0.0334
